In PMC4560423, “Identification and Characterization of a Novel Galactofuranose-Specific β-D-Galactofuranosidase from Streptomyces Species” (PLoS ONE, 2015):

Tests used:
[1] = target: T1, ORF1110 Galf-ase (ORF1110 protein) (Streptomyces sp. JHA19, UniProt A0A0K2SRV3); assay: inhibition of pNP-β-D-Galf hydrolysis, pNP absorbance at […] nm; format: biochemical
T1 construct: recombinant from E. coli BL21(DE3)CodonPlus, pET50b, N-terminal 2xHis6 and Nus tags (cut by HRV3C for TLC only); ORF 786 aa; GH2 with C-terminal AbfB domain
T1 sequence (A0A0K2SRV3 46-786): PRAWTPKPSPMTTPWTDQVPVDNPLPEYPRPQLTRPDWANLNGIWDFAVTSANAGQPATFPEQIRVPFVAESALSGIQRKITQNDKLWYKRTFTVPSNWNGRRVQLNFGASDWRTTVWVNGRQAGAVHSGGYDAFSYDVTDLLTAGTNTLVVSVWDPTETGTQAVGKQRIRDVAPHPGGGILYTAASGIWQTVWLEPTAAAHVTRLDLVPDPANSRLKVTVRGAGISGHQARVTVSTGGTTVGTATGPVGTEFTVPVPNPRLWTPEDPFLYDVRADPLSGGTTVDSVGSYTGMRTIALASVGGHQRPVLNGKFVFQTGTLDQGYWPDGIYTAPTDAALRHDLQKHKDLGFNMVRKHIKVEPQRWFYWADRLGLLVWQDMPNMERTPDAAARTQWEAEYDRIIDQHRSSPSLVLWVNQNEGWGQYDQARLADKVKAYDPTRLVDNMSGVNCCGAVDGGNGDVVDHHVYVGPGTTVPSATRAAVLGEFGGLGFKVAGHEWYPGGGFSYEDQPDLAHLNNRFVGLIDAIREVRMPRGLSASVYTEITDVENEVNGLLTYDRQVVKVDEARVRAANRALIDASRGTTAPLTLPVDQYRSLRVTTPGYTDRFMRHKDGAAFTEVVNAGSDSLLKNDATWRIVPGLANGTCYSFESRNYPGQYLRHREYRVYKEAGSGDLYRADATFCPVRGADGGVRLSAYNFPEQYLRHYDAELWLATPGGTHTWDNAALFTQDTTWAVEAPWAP

[2] = test system: O=[N+]([O-])c1ccc(O[C@@H]2O[C@@H]([C@H](O)CO)[C@H](O)[C@H]2O)cc1; assay: purified protein; settings: 37 °C, acetate buffer pH 4.5 (general assay; pH of the kinetics not stated)

Compound: O=C1O[C@@H](CO)[C@H](O)[C@H]1O [L-arabino-1,4-lactone]
- Ki [1]: 51 mM

Compound: ORF1110 Galf-ase (ORF1110 protein) (Streptomyces sp. JHA19)
- Km [2]: 4.4 mM
